Literature values as cited in patent EP0611214A2, “Acidic composition and process of using same” (MINNESOTA MINING AND MANUFACTURING COMPANY, priority 1993, dated 1994).

Settings: in water, as reported in U.S. Pat. No. 5,080,822, column 4

aqueous ambient temperature solubility in weight percent [weight percent] | Structure (SMILES)
2.3 | OCCOc1ccccc1 [2-phenoxyethanol]
4.4 | OCc1ccccc1 [benzyl alcohol]
0.5 | CC(=O)c1ccccc1 [acetophenone]
1.1 | CC(O)COc1ccccc1 (centres unmarked) [1-phenoxy-2-propanol]

Structure (SMILES) | aqueous ambient temperature solubility in weight percent [weight percent]
OCCc1ccccc1 [8-phenylethanol] | 1.6
